Experimental data published in patent US20030091589A1, “Methods and compositions for control of coccidiosis” (priority 2001, published 2003).
Marks after values point to notes of the source that are not given here.

Tests used:
Eimeria spp. [1] = assay: 42-day trials, growth of broiler chicks reared on Eimeria-infected recycled litter (Example 6); format: in vivo, Cornish Rock male broiler chicks; conditions: AVATEC 90.7 g/ton, Bacitracin Zn 50 g/t, BIO-MOS 0.5 kg/tonne
Protocol: Three 42-day trials were conducted to evaluate the effects of AVATEC (lasalocid, Alpharma, Fort Lee, N.J.), an anticoccidial ionophore (90.7 g/ton); Bacitracin Zn, (50 g/t), and BIO-MOS® (0.5 kg/tonne) on the growth of broiler chicks reared on recycled litter. Sixty (day-old) Cornish Rock male broiler chicks were put into each of four treatment groups (replicated three times) consisting of the following: 1) Control (untreated birds); 2) BIO-MOS® treated, 3) AVATEC treated, and 4) Bacitracin ZN treated. Pine wood shavings on which broilers infected with E. tenella, E. maxima, and E. acervulina had been grown were used as recycled litter for the trials. Pens containing this recycled litter were assigned to the four treatment groups prior to commencement of the trial, and day old chicks were introduced for each of the three subsequent trials with the same recycled litter.
Diets consisted of mainly corn-soy supplemented with necessary vitamins and minerals to satisfy 1994 National Research Council requirements. Weekly body weights were measured. […] Mean body weight averages of chicks in all treatments decreased with each cycle of litter re-use due to infection.

E. acervulina = assay: 28-day trial, broiler chicks challenged with E. acervulina (Example 3); format: in vivo, Cornish Rock male broiler chicks
Protocol: A 28-day trial with 360 Cornish Rock male broiler chicks was conducted to investigate the effects of two medicated feeds on the suppression of detrimental effects of E. acervulina.
Day-old chicks were fed a standard corn soya diet containing Salinomycin (6 mg/kg) or BIO-MOS® (1 kg/tonne). The four experimental groups were: 1) negative control, unmedicated, unchallenged; 2) Salinomycin-treated, challenged, 3) BIO-MOS®-treated, challenged and 4)BIO-MOS® treated, unchallenged. Birds were randomly assigned to three replicate pens in each treatment group. At 14 days of age, chicks were infected orally by gavage with E. acervulina (500,000 oocysts/bird). The response variables measured included weekly body weight gain and cecal lesion scores. Data were subjected to ANOVA using the General Linear Model procedure (SAS Institute, Cary, N.C.) as described in Example 1.

Eimeria spp. [2] = assay: 20-day battery trial, chicks challenged with sporulated Eimeria species (Example 4); format: in vivo, broiler chicks (Cobb)
Protocol: A 20-day battery trial was conducted to determine the anticoccidial activity of a yeast cell composition in broiler chicks (Cobb) challenged with sporulated Eimeria species. One hundred sixty chicks (day old) were housed in battery cages (10 chicks per cage, 459 sq. cm/bird). There were four replicated cages per treatment. A standard corn soya diet was provided with water ad libitum. Treatment groups were the following: (1) Negative control (non-medicated, unchallenged); 2) positive control (non-medicated, challenged; 3) BIO-MOS®, 1 kg/tonne (challenged); and 4) Salinomycin, 60 g/tonne (challenged).
The challenge inoculum was provided at 14 days of age and contained 50,000 E. acervulina, 5,000 E. maxima or 40,000 E. tenella oocysts, respectively, administered by oral gavage. Body weights and feed consumption were measured at 9, 14 and 20 days of age. Six days post-infection all birds were sacrificed and lesion scored using the method of Johnson and Reid (1970) supra. Lesion scores were evaluated in the upper (E. acervulina), middle (E. maxima), and cecal (E. tenella) regions of the intestine.

Eimeria spp. [3] = assay: 20-day battery trial, chicks challenged with sporulated Eimeria species (Example 5); format: in vivo, broiler chicks (Cobb)
Protocol: A 20-day battery trial was conducted to determine the anticoccidial activity of a BIO-MOS® in broiler chicks (Cobb) challenged with sporulated Eimeria species. One hundred sixty chicks (day old) were housed in battery cages (10 chicks per cage, 459 sq.cm/bird). There were 4 replicated cages per treatment. A standard soya corn diet was provided with water ad libitum. Treatment groups were the following: 1) Negative control (non-medicated, unchallenged); 2) Positive control (non-medicated and challenged; 3) BIO-MOS®, 1 kg/tonne (challenged); and 4) Salinomycin, 60 g/tonne (challenged).
The challenge inoculum was provided at 14 days of age and contained respectively, 50,000 E. acervulina, 5,000 E. maxima or 40,000 E. tenella oocysts administered by oral gavage. Body weights and feed consumption were measured at 0, 14 and 20 days of age.
Six days post infection all birds were sacrificed and lesion scored, using the method of Johnson and Reid supra. Lesion scores were evaluated in the upper (E. acervulina), middle (E. maxima), and cecal (E. tenella) regions of the intestine.

E. tenella = assay: 28-day trial, broiler chicks challenged with E. tenella (Example 1); format: in vivo, Cornish Rock male broiler chicks
Protocol: A 28-day trial with 360 Cornish Rock male broiler chicks was conducted to investigate the effects of two medicated feeds on the suppression of detrimental effects of E. tenella (See Tables I & II).
Day-old chicks were fed standard corn soya diets containing Monensin ([…]) or a yeast cell wall/mannanoligosaccharide-containing composition (BIO-MOS®, Alltech, Inc., Nicholasville, Ky.) (1 kg/tonne). The experimental groups included: 1) negative control (unmedicated, unchallenged); 2) positive control (untreated, challenged); 3) Monensin-treated, challenged and 4) BIO-MOS®-treated, challenged. Birds were randomly assigned to three replicate pens in each treatment group. At 14 days of age, chicks were infected orally by gavage with E. tenella (50,000 oocysts/bird). The response variables measured included weekly body weight gain and cecal lesion scores as described (Johnson and Reid. 1970 “Anticoccidial Drugs: Lesion Scoring Technique in Battery and Floor Pen Experiments with Chickens.” Exp. Parasitol. 28:30-36). Treatment differences were evaluated by using the LSD procedure with the General Linear Models Procedure (SAS Institute, 1985, Cary, N.C.) using pens as the experimental units. The model statement included only treatment effects. When significance differences (P<0.05) were observed, the least significant differences (LSD) procedures was applied to test for the differences among treatments.

E. maxima = assay: 28-day trial, broiler chicks challenged with E. maxima (Example 2); format: in vivo, Cornish Rock male broiler chicks
Protocol: A 28-day trial with 360 Cornish Rock male broiler chicks was conducted to investigate the effects of two medicated feeds on the suppression of E. maxima infection. Thirty day-old chicks per treatment group were housed in battery cages and fed a standard soya corn diet containing Monensin ([…]) or a commercially available yeast cell-derived composition containing yeast cell wall material and mannanoligosaccharide (BIO-MOS®) (1 kg/tonne). The four experimental groups included: 1) negative control (unmedicated, unchallenged); 2) positive control (unmedicated, challenged); 3) Monensin treated, challenged, and 4) BIO-MOS® treated, challenged. Birds were assigned to treatments and replicate pens as described in Example 1. At 14 days of age, chicks were infected orally by gavage with E. maxima (50,000 oocysts/bird). The response variables measured included weekly body weight gain and cecal lesion scores. Such measurements were subjected to analysis of variance as described in Example 1.

[4] = Eimeria spp. infected, BIO-MOS 1 kg/t, Salinomycin 60 g/t
[5] = post-challenge period, BIO-MOS 1 kg/t, Salinomycin 60 g/t
[6] = post-challenge weight gain versus unchallenged control
[7] = pre-challenge period, BIO-MOS 1 kg/t, Salinomycin 60 g/t
[8] = whole trial, BIO-MOS 1 kg/t, Salinomycin 60 g/t

CC[C@@H](C(=O)[C@@H](C)[C@@H](O)[C@H](C)CCc1ccc(C)c(O)c1C(=O)O)[C@H]1O[C@](CC)([C@H]2CC[C@](O)(CC)[C@H](C)O2)C[C@@H]1C [AVATEC, lasalocid]
Body Weight, Trial 1 (Eimeria spp. [1]; 42-day trial 1 on recycled litter): 2271^a Grams | Body Weight, Trial 2 (Eimeria spp. [1]; 42-day trial 2 on same recycled litter): 1863^b Grams | Body Weight, Trial 3 (Eimeria spp. [1]; 42-day trial 3 on same recycled litter): 1760^ab Grams

CC[C@@H](C(=O)[C@@H](C)[C@@H](O)[C@H](C)[C@@H]1O[C@@H]([C@@H](CC)C(=O)O)CC[C@@H]1C)[C@H]1O[C@]2(C=C[C@@H](O)[C@]3(CC[C@@](C)([C@H]4CC[C@](O)(CC)[C@H](C)O4)O3)O2)[C@H](C)C[C@@H]1C [Salinomycin]
Body Weight Gain Post-Infection Week 3 (E. acervulina; Challenge: Yes (E. acervulina)): 350^a grams | Body Weight Gain Post-Infection Week 4 (E. acervulina; Challenge: Yes (E. acervulina)): 607^ab grams | Body Weight Pre-Infection Week 2 (E. acervulina; Challenge: Yes (E. acervulina)): 236^a grams | reduction of severity of cecal lesions (cecal lesion scores) (E. acervulina; E. acervulina challenge, versus positive control): 57% | Cecal Lesion Scores (E. acervulina; chicks challenged with E. acervulina 500,000 oocysts/bird at 14 days, Salinomycin 6 mg/kg or BIO-MOS 1 kg/tonne in feed): 0.92^bc | lesion scores compared to control groups in the upper and mid intestine regions (Eimeria spp. [2]; Eimeria spp. challenge): significantly reduced (P<0.05) | Feed Conv. (Eimeria spp. [2]; [4]): 1.511^b | Average Cecal Lesion Scores, Ceca (Eimeria spp. [2]; cecal region (E. tenella), six days post-infection, BioMos 1 kg/t, Salinomycin 60 g/t): 0.6^c | Average Cecal Lesion Scores, Mid (Eimeria spp. [2]; middle intestine (E. maxima), six days post-infection, BioMos 1 kg/t, Salinomycin 60 g/t): 0.8^c | Avg. Live Wt. Gain Day 14-20 (Eimeria spp. [2]; [5]): 0.314^a kg | % Wt. Gain Reduction (Eimeria spp. [2]; [6]): −0.41% | Avg. Live Wt. Gain Day 0-14 (Eimeria spp. [2]; [7]): 0.634^a kg | Average Cecal Lesion Scores, Total (Eimeria spp. [2]; total of regions, six days post-infection, BioMos 1 kg/t, Salinomycin 60 g/t): 2.7^c | Average Cecal Lesion Scores, Upper (Eimeria spp. [2]; upper intestine (E. acervulina), six days post-infection, BioMos 1 kg/t, Salinomycin 60 g/t): 1.3^c | Avg. Live Wt. Gain Day 0-20 (Eimeria spp. [2]; [8]): 0.634^a kg | lesion scores versus the positive control in all regions of the gut (Eimeria spp. [3]; Eimeria spp. challenge): significantly lower lesion scores | Feed Conv. (Eimeria spp. [3]; [4]): 1.675^a | Average Cecal Lesion Scores, Ceca (Eimeria spp. [3]; cecal region (E. tenella), six days post infection, BioMos 1 kg/t, Salinomycin 60 g/t): 1.2^b | Average Cecal Lesion Scores, Mid (Eimeria spp. [3]; middle intestine (E. maxima), six days post infection, BioMos 1 kg/t, Salinomycin 60 g/t): 0.7^b | Avg. Live Wt. Gain Day 14-20 (Eimeria spp. [3]; [5]): 0.243^ab kg | % Wt. Gain Reduction (Eimeria spp. [3]; [6]): 8.90% | Avg. Live Wt. Gain Day 0-14 (Eimeria spp. [3]; [7]): 0.262^a kg | Average Cecal Lesion Scores, Total (Eimeria spp. [3]; total of regions, six days post infection, BioMos 1 kg/t, Salinomycin 60 g/t): 2.7^ab | Average Cecal Lesion Scores, Upper (Eimeria spp. [3]; upper intestine (E. acervulina), six days post infection, BioMos 1 kg/t, Salinomycin 60 g/t): 0.8^b | Avg. Live Wt. Gain Day 0-20 (Eimeria spp. [3]; [8]): 0.504^ab kg

CC[C@@]1([C@@H]2O[C@@H]([C@H]3O[C@@](O)(CO)[C@H](C)C[C@@H]3C)C[C@@H]2C)CC[C@H]([C@]2(C)CC[C@]3(C[C@H](O)[C@@H](C)[C@@H]([C@@H](C)[C@@H](OC)[C@H](C)C(=O)O)O3)O2)O1 [Monensin]
Average Weight Gain, Mean (E. tenella; E. tenella infected, weeks 2-4 after challenge, mean of 3 replications): 544 Grams | Average Weight Gain, Replication 1 (E. tenella; E. tenella infected, weeks 2-4 after challenge, replicate pen 1): 498 Grams | Average Weight Gain, Replication 2 (E. tenella; E. tenella infected, weeks 2-4 after challenge, replicate pen 2): 611 Grams | Average Weight Gain, Replication 3 (E. tenella; E. tenella infected, weeks 2-4 after challenge, replicate pen 3): 523 Grams | Cecal Lesion Scores (E. tenella; chicks infected with E. tenella 50,000 oocysts/bird at 14 days, Monensin 60 g/kg or BIO-MOS 1 kg/tonne in feed): 1.50^b | improvements in weight gain relative to E. tenella-challenged control (E. tenella; standard Monensin treatment): not seen | severity of the E. tenella infections as measured by cecal lesion scores (E. tenella; versus untreated challenged control): significantly (P<0.05) reduced | Average Weight Gain, Mean (E. maxima; E. maxima infected, 2-4 weeks after challenge, mean of 3 replications): 536 | Average Weight Gain, Replication 1 (E. maxima; E. maxima infected, 2-4 weeks after challenge, replicate pen 1): 598 | Average Weight Gain, Replication 2 (E. maxima; E. maxima infected, 2-4 weeks after challenge, replicate pen 2): 412 | Average Weight Gain, Replication 3 (E. maxima; E. maxima infected, 2-4 weeks after challenge, replicate pen 3): 599 | reduction of average cecal lesion scores (E. maxima; E. maxima infection, versus positive control): 21% | Cecal Lesion Scores (E. maxima; chicks challenged with E. maxima 50,000 oocysts/bird at 14 days, Monensin 60 g/kg or BIO-MOS 1 kg/tonne in feed): 0.93^b
